We go through one substance from US20260263623A1, “STAPLED PEPTIDE-ANTIBODY CONJUGATES (SPACS) AND USES THEREOF” (priority 2021, published 2026).

In experiment [1] the test system is HER2+++ p53 mut breast cancer cell line (SK-BR-3). Put plainly: 72 hour cytotoxicity assay (CellTiter-Glo), SK-BR-3. The experiment is classed as cell-based. The note with it: SK-BR-3, highly expresses HER2, mutated p53 (insensitive to MDM2 inhibition); FIG. 6B. As to the method:
(§1) Cell culture: Cell lines were maintained in appropriate medium supplemented with fetal bovine serum to a final concentration of 10%.
(§2) 72 hour cytotoxicity assay: Cells were plated in a 96-well format, and after 24 hour incubation, serial dilutions of SPACs from a 1 mg/mL stock, or vehicle, were then added to the cells in a final volume of 100 μl. After incubating at 37° C. for 72 hours, 100 μl of CellTiter-Glo® reagent was added to the cells, and the plates were incubated 15 minutes at room temperature. Luminescence was then measured on a microplate reader.
In general terms: Cellular ATP, detected with luciferase, serves as a proxy for viable cell number.

The test system of experiment [2] is MCF7 cell line with low HER2 expression (HER2+), p53 WT. As to the kind of experiment: 72 hour cytotoxicity assay (CellTiter-Glo), MCF7. It counts as cell-based. The note with it: wild-type p53 (sensitive to MDM2 inhibition), FIG. 6A. As to the method:
as §1, §2

As to Trastuzumab emtansine, in experiment [1], the “activity (efficacy vs concentration)” value was “shows efficacy at relatively low concentration”. Moreover, the anti-proliferative activity result in experiment [2] is given as “no activity”.
